Measurements taken from patent publication US20050054629A1, “Compounds and methods of treating cell proliferative diseases” (priority 2002, published 2005).

Experiments:
[1] = test system: HCT116 colon adenocarcinoma; experiment: Cytotoxicity assay (MTT), 6 days; type: cell-based, human; conditions: Homo sapiens, HCT-116, 144 h, 6 days of treatment, read-out: Toxicity 6d (IC 50, μM) HCT116
Procedure, shortened: (§1)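 Survival is measured by formazan absorbance at 550 nm following 3 h incubation with 0.5 mg/ml MTT at 37° C. Treatment lasts 6 days at compound concentrations up to 50 μM with DMSO held at 1%. The 50% inhibitory concentration derives from surviving fraction.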

[2] = test system: NIH3T3; experiment: Cytoskeleton analysis, actin staining (FITC-phalloidin); type: cell-based, mouse; conditions: for Cell architecture modification actin staining (R: ruffles; FC: focal complexes) NIH3T3: 24 h treatment
Experimental: Since major rearrangements of cytoskeleton are observed in tumor cells and since the small GTPases are known to regulate these events, analysis of actin cytoskeleton was performed. Subconfluent cells seeded onto coverslips were treated with different concentration of compound (1, 10, 17.5, 25 and 50 μM) or vehicle for 24 h, before being fixed in 4% formaldehyde for 15 min., permeabilized in 0.2% Triton X100 for 5 minutes and incubated in PowerBlock (Biogenex) for 10 min. Actin filaments were stained with 0.5 μg/ml fluorescein isothiocyanate (FITC)-labelled phalloidin for 1 hour. Analysis was performed using an inverted fluorescent microscope.

[3] = test system: Ras; experiment: Ras-dependant signaling pathway analysis (reporter system); type: cell-based; set-up: key: −: no effect of the compound was observed; +: an effect of the compound was observed
Experimental: (§2) The impact of the compounds on Ras and Rac signaling pathways was analysed with two reporter systems described by Imler (Nature 1988) and Lin (Science, 1995) respectively on one hand, and by a colony formation assay in the presence of constitutively activated Ras (RasV12) and Rac (RacV12) on the other hand. For this latter experiment, fifty percent confluent NIH3T3 cells in a 10 cm diameter petri dish were transfected with 0.5 μg pSV2-RasV12 or 0.5 μg pEXV RacV12 plasmids plus 100 ng of pSV2-neomycin plasmid using Lipofectamine-Plus reagent (Invitrogen) according to the manufacturer's instructions. Forty-eight hours later, cells were trypsinised, splitted to ⅓, and incubated in the presence of complete medium supplemented with 400 μg/ml geneticin (Invitrogen) and different doses of compound (1, 10, 17.5, 25 and 50 μM) until emerging resistant clones appear (2-3 weeks). The medium was renewed every 3 days. Colonies with a minimum of 50 cells were counted after staining with Fuschin 2%.

[4] = test system: cell architecture; experiment: Cell architecture modification, phase contrast; type: cell-based; set-up: key: −: no effect of the compound was observed; +: an effect of the compound was observed
[5] = test system: Rac; experiment: Rac-dependant signaling pathway analysis (reporter system); type: cell-based; set-up: key: −: no effect of the compound was observed; +: an effect of the compound was observed
Experimental: as §2

[6] = test system: MDA-MB-231 breast carcinoma; experiment: Cytotoxicity assay (MTT), 6 days; type: cell-based; conditions: Homo sapiens, MDA-MB-231, 144 h, 6 days of treatment, read-out: Toxicity 6d (IC 50, μM) MDA231
Procedure, shortened: as §1

[7] = test system: H460 lung carcinoma; experiment: Cytotoxicity assay (MTT), 6 days; type: cell-based; conditions: Homo sapiens, NCI-H460, 144 h, 6 days of treatment, read-out: Toxicity 6d (IC 50, μM) H460
Procedure, shortened: as §1

[8] = test system: MCF-7 breast carcinoma; experiment: Cytotoxicity assay (MTT), 6 days; type: cell-based; conditions: Homo sapiens, MCF7, 144 h, 6 days of treatment, read-out: Toxicity 6d (IC 50, μM) MCF7
Procedure, shortened: as §1

[9] = test system: NIH3T3 cells; experiment: Colony formation assay with constitutively activated Ras (RasV12) and Rac (RacV12); type: cell-based, mouse; set-up: key to Colony formation: −: no effect of the compound was observed; +: an effect of the compound was observed
Experimental: as §2

[10] = test system: MDA-MB-231 cells; experiment: Migration assay (Fluoroblock inserts), Example 32; type: cell-based, human; conditions: 16 hours
Experimental: FIG. 10: Migration of MDA-MB-231 cells in the presence of various concentrations of L651582, and EHT 0823. 5 10^4 MDA-MB-231 cells, resuspended in culture medium with or without Fetal Bovine Serum (FBS), were seeded in the upper Boyden blind well on top of 8 μm pore-sized filters. The ability of cells to migrate through the filter was assayed in the absence or presence of FBS in the lower Boyden well. After incubation at 37° C. for 16 hours, the medium was removed and replaced with calcein containing medium. After labelling, cells were washed and resuspended in HBSS and fluorescence was read in a fluoroskan. Fluorescence values were normalized against the fluorescence obtained for the 1% DMSO control. The data plotted are the means±SEM for 2 wells under the different conditions.
An essential characteristic of malignant cells is their ability to migrate, invade host tissues and to produce metastases. In order to evaluate the capacity of one compound to affect the ability of tumoral cells to migrate, migration assays were performed using highly invasive tumoral cells MDA-MB-231. This assay was performed using Falcon HTS Fluoroblock inserts. Culture medium containing Fetal Bovine Serum (FBS; which is used as a chemoattractant) was added to the plate wells and 2 10^4 MDA-MB-231 cells resuspended in medium without FBS and with 0.1% BSA were added to each insert well. The compound of interest was added to the medium in both the upper and the lower chambers. Plate were incubated for 16 hours at 37° C. Following incubation, the medium was removed from the upper chamber and the entire insert plate was transferred to a second 24-well plate containing 4 μg/ml Calcein-AM in medium containing 0.1% BSA. The plates were incubated for one hour at 37° C., rinsed with Hanks Buffered Saline (HBSS). Fluorescence data were collected using Fluoroskan Ascent FL fluorescence plate reader at an excitation wavelength (Ex) of 485 nm and emission wavelength (Em) of 517 nm. Only those labelled cells that passed through the Matrigel layer and the membrane were detected. Data were analyzed using the GraphPad Prism software.

[11] = test system: HCT116; experiment: Cell viability assay (MTT), Example 32; type: cell-based, human; conditions: Homo sapiens, HCT-116, 144 h; day 6, 10% FBS
Experimental: FIG. 7: Antiproliferative effect of compounds on HCT116 (top) and MDA-MB-231 (bottom) cell lines measured by MTT viability assay. 2.5 10^3 (HCT116) or 7.5 10^3 (MDA-MB-231) cells were seeded in 48-well plates in growth medium containing 10% FBS, with or without various concentrations of test compounds. Cell cultures were fed every 3 days with the appropriate media. Cell viability was determined on day 6. Data were analyzed and IC50s were calculated from the dose-response curves using GraphPad Prism.
In order to determine one compound effect on cell viability, microculture tetrazolium assay (MTT) was performed as described by Carmichael et al., (1996) with modifications. Four human tumoral cell lines, namely HCT116 colon adenocarcinoma, H460 lung carcinoma, MCF-7 and MDA-MB-231 breast carcinoma cell lines, and 3 immortalized but non tumorigenic cell lines, namely NIH3T3 mouse fibroblasts and human breast-derived MCF10-A and human lung-derived MRC-5 were purchased at ATCC and cultured according to their recommendations. Briefly, 2.5 10^3 to 2 10^4 cells per well were seeded in 48-well plates 24 hours before drug addition. Cells were treated with 0 to 200 μM (11 concentrations) of compound solubilized in DMSO, adjusting the final concentration of DMSO to 1% in the well. Six days after treatment, the medium was replaced by PBS containing 0.5 mg/ml MTT (Sigma) and cells were incubated for 1-3 hours at 37° C. before solubilization of formazan crystals in 100% DMSO. Absorbance was measured using a spectrophotometer at a wavelength of 550 nm. Data was analyzed using the GraphPad Prism software (GraphPad Software, Inc., San Diego, USA), and IC50 (dose leading to 50% cell death) was calculated from the dose-response curves.

[12] = test system: HCT116 cells; experiment: Anchorage-independent cell growth assay in soft agar, Example 32; type: cell-based, human
Experimental: FIG. 8: Effect of the treatment of HCT116 cells with the compounds on the size of the clones grown in soft agar. 5 10^3 cells were seeded in 24-well plates in 0.3% agar-containing medium supplemented with the designated amount of compounds. After 7 days of incubation at 37° C., pictures were taken of each well and were analyzed using the ImageJ image analysis software. In particular, clone size and number were calculated. The data were analyzed using GraphPad Prism, and IC50 was calculated.
In order to evaluate the effect of one compound on the capacity of tumour cells to grow without anchorage, HCT116 cells were seeded in soft agar. In contrast to microplate assays which average the drug's effects over an entire cell population, clonogenic assays offer the possibility of distinguishing cytotoxic agents (i.e., decreased colony number) from cytostatic agents (i.e., decreased colony size without decreased colony number; Murphy M. J. et al., 1996).
Briefly, 5 10^3 HCT116 cells were resuspended in 300 pi of complete medium containing 0.3% soft-agar (Difco) and different concentrations of compound (8 concentrations ranging from 0 to 30 μM). Cells were then poured on a solidified layer of medium containing 0.5% of soft agar plus the compound at the same concentration as in the upper layer. Cells were incubated for 7 days' at 37° C. before pictures of each well were taken using a phase contrast microscope (Nikon) and a digital camera (Nikon Coolpix 990). Pictures were subsequently analyzed using a free image analysis software from the NIH (ImageJ) allowing to determine clones size and number.
Data was analyzed using the GraphPad Prism software, and IC50 (dose leading to a 50% decrease of clone size or number) was calculated from dose-response curves. The ratio IC50 clone size/IC50 clone number was then calculated. When this ratio is equal to 1 (IC50 size=IC50 number), the compound is referred to as “cytotoxic”. When the ratio is close to 0 (IC50 size<<IC50 number), the compound is referred to as “cytostatic” (FIG. 6).

[13] = test system: MDA-MB-231 cells; experiment: Migration assay (Boyden chamber, non-coated filters); type: cell-based, human; conditions: MDA-MB-231, Boyden chamber
Experimental: One day after seeding, 10^6 MDA-MB-231 cells were treated overnight with different concentrations of compounds (1, 10, 17.5, 25 and 50 μM). Cells were collected with Versene (Invitrogen), counted with trypan blue exclusion, rinsed twice in serum-free medium containing 0.1% BSA and resuspended in serum-free medium containing 0.1% BSA plus the appropriate concentration of compound. 10^5 treated cells were placed in the upper chamber. Medium containing 10% of FBS plus the appropriate concentration of compound was placed in the lower chamber as a chemoattractant. The Boyden chamber was incubated 6 hours at 37° C. before the cells were fixed and stained with Diff-Quick (Dade-Berhing). Cells on the upper part of the filters were removed using a cotton swab. Cells on the underside of the filters were visualised and counted under light microscope.
The migration assay was performed the same way, using non-coated filters.

[14] = test system: MRC-5; experiment: Cytotoxicity assay (MTT), 6 days; type: cell-based; conditions: Homo sapiens, MRC5, 144 h, 6 days of treatment, read-out: Toxicity 6d (IC 50, μM) MRC-5
Procedure, shortened: as §1

SMILES | IC50 [1] | general morphology of NIH3T3 cells, as detected by β-actin staining [2] | Cell architecture modification actin staining (R: ruffles; FC: focal complexes) NIH3T3 [2] | Small GTPases activities Ras [3] | Cell architecture modification phase contrast [4] | Small GTPases activities Rac [5] | IC50 [6] | IC50 [7] | IC50 [8] | Colony formation [9] | inhibition of migration of MDA-MB-231 cells ([10]; 10 μM compound) | inhibition at 50 µM ([10]; Homo sapiens, MDA-MB-231, 50 μM compound) | IC50 [11] | IC50 anchorage-independent growth of HCT116 (clone size) in soft agar ([12]; 7 days) | Migration [13] | IC50 [14] | inhibition of migration of MDA-MB-231 cells ([10]; 50 μM compound) | inhibition at 10 µM ([10]; Homo sapiens, MDA-MB-231, 10 μM compound) | mode of action (cytotoxic vs cytostatic) ([12]; HCT116 soft agar) | ratio IC50 clone size/IC50 clone number ([12]; HCT116 soft agar, 7 days)
O=c1cc(CO)occ1OCCCCCOc1cccc(Cl)c1 [EH10600, 5-[5-(3-Chlorophenyloxy)pentyloxy]-2-(hydroxymethyl)-4H-pyran-4-one] | > 50 µM | affected | cell destructuration | − | + | − | 10 µM | 25 µM | 40 µM | − |  |  |  |  |  |  |  |  |  | 
O=c1cc(COC2CCCCO2)occ1OCCCCCn1ccc2cc(Cl)ccc21 (centres unmarked) [EHT 0823, 5-[5-(5-Chloro-indol-1-yl)-pentyloxy]-2-(tetrahydro-pyran-2-yloxymethyl)-4H-pyran-4-one] |  |  |  |  |  |  |  |  |  |  | No significant inhibition | 90% | 1.5 to 4 µM | micromolar range |  |  |  |  |  | 
O=c1cc(CO)occ1OCCCCOc1ccc(Cl)c(Cl)c1 [EH17700, 5-[4-(3,4-Dichlorophenyloxy)butyloxy]-2-(hydroxymethyl)-4H-pyran-4-one] | 30 µM |  |  | − | − | − | 15 to 20 µM | 15 µM | 20 µM | − |  |  |  |  | no effect | > 50 µM |  |  |  | 
O=c1cc(CO)occ1OCCCCCOc1ccc(Cl)c(Cl)c1 [EH5500, 5-[5-(3,4-Dichlorophenyloxy)pentyloxy]-2-(hydroxymethyl)-4H-pyran-4-one] | 50 µM | affected | cell destructuration | − | + | − | > 50 µM | 15 µM | 35 µM | − |  |  |  |  |  |  |  |  |  | 
NC(=O)c1nnn(Cc2cc(Cl)c(C(=O)c3ccc(Cl)cc3)c(Cl)c2)c1N [L651582, carboxyamidotriazole, reference compound] |  |  |  |  |  |  |  |  |  |  |  |  |  |  |  |  | Complete inhibition | ~40% | cytostatic | 0.3
